In patent publication US8222267B2 (priority 2009, dated 2012):

What was measured:
[1] = Pharmacokinetics after single oral co-administered dose of morphine and oxycodone (about 3:2) in healthy subjects; conditions: for AUC0-∞ (dose adjusted) / Cmax: healthy subjects, n = 18
Experimental: Values for the observed maximum plasma concentration (Cmax), total area under the plasma concentration-time curve (AUC0-∞) and the time to maximum plasma concentration (Tmax) were determined.

[2] = Open-label pilot study, adverse events / safety of MOXDUO, PERCOCET and preceding IV PCA morphine

Row | SMILES | AUC0-∞ (dose adjusted) ([1]; single oral co-administered dose morphine/oxycodone 3 mg/2 mg) [ng·h/mL/mg] | AUC0-∞ (dose adjusted) ([1]; single oral co-administered dose morphine/oxycodone 12 mg/8 mg) [ng·h/mL/mg] | Tmax ([1]; human, plasma, po) [h] | Cmax ([1]; human, plasma, po, single oral co-administered dose morphine/oxycodone 3 mg/2 mg) [ng/mL] | Cmax ([1]; human, plasma, po, single oral co-administered dose morphine/oxycodone 12 mg/8 mg) [ng/mL] | Dose proportionality of plasma levels ([1]; single-dose combination, 3 mg/2 mg to 12 mg/8 mg dose range, dose-normalized Cmax and AUC0-∞ within 80-125% limits) | Overall incidence of nausea, pruritus, constipation, and dizziness ([2]; during IV PCA morphine use vs same time period after first dose of study medication) | Subjects with moderate or severe nausea ([2]; while on IV PCA morphine, before study medication) [%]
1 | COc1ccc2c3c1O[C@H]1C(=O)CC[C@@]4(O)[C@@H](C2)N(C)CC[C@]314 [Oxycodone, oxycodone] | 9.62 | 9.62 | 1 | 4.9 | 17.8 | increase linearly in a dose-proportionate manner | – | –
2 | CN1CC[C@]23c4c5ccc(O)c4O[C@H]2[C@@H](O)C=C[C@H]3[C@H]1C5 [Morphine, morphine] | – | – | – | – | – | – | higher | 25
